From article doi:10.1101/252379v1 (biorxiv, 2018)

Tests used:
Sir2La [1] = target: T1, Sir2La (Lactobacillus acidophilus, UniProt Q5FMQ6); test: end-point fluorogenic deacylase assay; format: biochemical
T1 sequence (Q5FMQ6 1-239): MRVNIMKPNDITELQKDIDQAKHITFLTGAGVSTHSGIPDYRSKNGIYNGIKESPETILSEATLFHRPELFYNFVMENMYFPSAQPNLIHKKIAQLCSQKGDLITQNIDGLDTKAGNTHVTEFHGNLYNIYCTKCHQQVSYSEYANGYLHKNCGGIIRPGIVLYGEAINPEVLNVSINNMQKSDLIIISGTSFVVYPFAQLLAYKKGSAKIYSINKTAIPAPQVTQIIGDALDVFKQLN

Sir2La [2] = target: T1, Sir2La; test: biochemical; conditions: 6 IC50 (µM), continuous, continuous assay
Sir2La [3] = target: T1, Sir2La; test: fluorogenic deacylase assay; format: biochemical; conditions: read-out: % residual activity at 50 μM

IC50 (Sir2La [1]) [µM] | IC50 (Sir2La [2]; Ac-LGKac-AMC (2b)) [µM] | IC50 (Sir2La [2]; Ac-LGKpro-AMC (2c)) [µM] | remaining activity at 50 µM (Sir2La [3]) [%] | SMILES
15 ± 2 | 5.8 ± 0.1 | 12 |  | CC(=S)NCCCC[C@H](NC(=O)OCc1ccccc1)C(=O)N[C@@H](Cc1c[nH]c2ccccc12)C(=O)NC(C)C [compound 6, thioacetamide 6]
 |  |  | 77 | CNC(=S)NCCCC[C@H](NC(=O)OCc1ccccc1)C(=O)N[C@@H](Cc1c[nH]c2ccccc12)C(=O)NC(C)C [compound 7, thiourea 7]
350 ± 70 |  |  |  | NC(=O)c1cccnc1 [nicotinamide]
100 ± 30 |  |  |  | Cc1ccc(C(=O)Nc2ccc(S(=O)(=O)O)c3cc(S(=O)(=O)O)cc(S(=O)(=O)O)c23)cc1NC(=O)c1cccc(NC(=O)Nc2cccc(C(=O)Nc3cc(C(=O)Nc4ccc(S(=O)(=O)O)c5cc(S(=O)(=O)O)cc(S(=O)(=O)O)c45)ccc3C)c2)c1 [suramin]
